In US6033823A, “Mutated penicillin G acylase genes” (priority 1994, dated 2000):
Changes are numbered by the printed parent chain. pKi: −log10 of the molar value.

What was measured:
Format in all cases: biochemical
Settings in all cases: from progress curves of NIPAB deacylation, 25° C., 0.1 M NaH2PO4.H2O buffer pH 7.5, read-out: Ki Phenylacetic acid (inhibition constant, dissociation constant)
[1] = biological target: T1, Alcaligenes faecalis Penicillin G acylase mutant B:L56G (Alcaligenes faecalis, UniProt O34142, L321G); test: NIPAB kinetics and phenylacetic acid product inhibition, mutant B:L56G
T1 construct: alpha 202 aa, beta 551 aa; recombinant, E. coli host
T1 sequence (O34142 27-228): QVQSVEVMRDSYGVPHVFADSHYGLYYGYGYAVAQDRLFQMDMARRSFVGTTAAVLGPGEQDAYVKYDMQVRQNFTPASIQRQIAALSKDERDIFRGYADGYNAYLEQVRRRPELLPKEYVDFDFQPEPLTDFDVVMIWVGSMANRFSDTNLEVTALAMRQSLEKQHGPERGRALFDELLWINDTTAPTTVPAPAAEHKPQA
T1 sequence (O34142 266-816 L321G): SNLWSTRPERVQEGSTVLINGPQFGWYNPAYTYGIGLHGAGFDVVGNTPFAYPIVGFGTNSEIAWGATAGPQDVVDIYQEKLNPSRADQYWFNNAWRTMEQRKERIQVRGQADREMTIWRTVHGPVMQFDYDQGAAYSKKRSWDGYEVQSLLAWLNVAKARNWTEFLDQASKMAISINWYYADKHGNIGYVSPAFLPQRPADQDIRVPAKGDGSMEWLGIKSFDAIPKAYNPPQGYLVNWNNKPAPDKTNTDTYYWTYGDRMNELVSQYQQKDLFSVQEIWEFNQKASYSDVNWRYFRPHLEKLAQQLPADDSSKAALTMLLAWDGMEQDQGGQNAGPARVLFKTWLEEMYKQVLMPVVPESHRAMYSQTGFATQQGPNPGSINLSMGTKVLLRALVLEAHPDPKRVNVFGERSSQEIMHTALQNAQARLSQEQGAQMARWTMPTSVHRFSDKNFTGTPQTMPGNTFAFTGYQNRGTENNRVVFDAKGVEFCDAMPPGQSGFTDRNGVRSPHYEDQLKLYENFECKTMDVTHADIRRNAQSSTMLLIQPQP
Protocol: (§1) In a continuous assay Penicillin G acylase was assayed spectro-fotometrically with the chromogenic substrate NIPAB [6-nitro-3-phenylacetamido-benzoic acid]. The liberation of 3-amino-6-nitrobenzoic acid was monitored by measuring the extinction at 405 nm in a Kontron 610 kinetic spectrofotometer. Measuring maximal rate, the assays were performed at 25° C. using 20 mM NaH2 PO4.H2 O at pH 7.5 with 20 mM NIPAB and 100 μl enzym solution (at a proper dilution). Initial rate measurements were performed with varying concentration of NIPAB.
(§2) Initial rate measurements were performed with excess substrate over the enzyme. Catalytic parameters were derived from least-squares fitting of the measured initial rates plotted for various substrate concentrations according to the Michaelis-Menten equation.
(§3) The complete conversion of NIPAB was followed as a funtion of time at 20, 50 and 100 μM NIPAB by following the increase in absorbtion at 405 nm. Products of this conversion are phenylacetic acid and 3-amino-6-nitrobenzoic acid. The conversion was performed at 25° C. in 0.1 M NaH2 PO4.H2 O buffer pH 7.5. The progress curves of the deacylation of NIPAB could be fitted very well when product inhibition by phenylacetic acid was taken into account. […]

[2] = biological target: T2, Alcaligenes faecalis Penicillin G acylase mutant B:I177V (Alcaligenes faecalis, UniProt O34142, I442V); test: NIPAB kinetics and phenylacetic acid product inhibition, mutant B:I177V
T2 construct: alpha 202 aa, beta 551 aa; recombinant, E. coli host
T2 sequence (O34142 27-228): T1 sequence (O34142 27-228)
T2 sequence (O34142 266-816 I442V): T1 sequence (O34142 266-816 L321G) with G56L, I177V
Protocol: as §1, §2, §3

[3] = biological target: T3, Alcaligenes faecalis Penicillin G acylase mutant B:L56A (Alcaligenes faecalis, UniProt O34142, L321A); test: NIPAB kinetics and phenylacetic acid product inhibition, mutant B:L56A
T3 construct: alpha 202 aa, beta 551 aa; recombinant, E. coli host
T3 sequence (O34142 27-228): T1 sequence (O34142 27-228)
T3 sequence (O34142 266-816 L321A): T1 sequence (O34142 266-816 L321G) with G56A
Protocol: as §1, §2, §3

In the case of `O=C(O)Cc1ccccc1` [phenylacetic acid], the pKi [1] was 4.26, the pKi [2] was 4.46 and the pKi [3] was 4.23.
